The results in this text go back to ChEMBL document CHEMBL1250543, “Potential application of thymidylate kinase in nucleoside analogue activation in Plasmodium falciparum” (Bioorg Med Chem, 2010).

Test [1] has as its system Plasmodium falciparum. The experiment in a line: Antimalarial activity against Plasmodium falciparum 3D7 at 100 uM by SYBR green assay. The test is classed as functional. Particulars: read-out: GI.
For test [2], the system named is Plasmodium falciparum. Kind of test: Antimalarial activity against Plasmodium falciparum 3D7 after 48 hrs by SYBR green assay. Format: functional, organism-based. As to conditions: 3D7, 48 h.

With `CCOC(=O)[C@H](NP(=O)(OC[C@@H]1C=C[C@H](n2cc(C)c(=O)[nH]c2=O)O1)Oc1ccccc1)C(C)C` (stereo partly specified), the inhibition of growth at 100 µM in the test with Plasmodium falciparum [1] was determined as 18%. For the same molecule, the EC50 in the test with Plasmodium falciparum [2] is greater than 100 µM.

`COC(=O)[C@@H](C)NP(=O)(OC[C@@H]1C=C[C@H](n2cc(C)c(=O)[nH]c2=O)O1)Oc1ccccc1` (stereo partly specified): the inhibition of growth at 100 µM in the test on Plasmodium falciparum [1] amounted to 9%. Moreover, in the test on Plasmodium falciparum [2], the EC50 is greater than 100 µM.

For `COC(=O)[C@@H](C)NP(=O)(OC[C@H]1O[C@@H](n2cc(C)c(=O)[nH]c2=O)C[C@@H]1N=[N+]=[N-])Oc1ccccc1` (stereo partly specified), the inhibition of growth at 100 µM in the test with Plasmodium falciparum [1] is 35%. The molecule further gave an EC50 in the test with Plasmodium falciparum [2] of 120 µM.

Take `CCOC(=O)[C@H](NP(=O)(OC[C@H]1O[C@H](n2cc(C)c(=O)[nH]c2=O)C[C@@H]1N=[N+]=[N-])Oc1ccccc1)C(C)C` (stereo partly specified): the inhibition of growth at 100 µM with Plasmodium falciparum [1] was 78%. This molecule had an EC50 in the test with Plasmodium falciparum [2] of 67 µM.

For the molecule `CCOC(=O)[C@H](NP(=O)(OC[C@H]1O[C@@H](n2cc(C)c(=O)[nH]c2=O)C[C@@H]1N=[N+]=[N-])Oc1ccccc1)C(C)C` (stereo partly specified), the inhibition of growth at 100 µM in the test with Plasmodium falciparum [1] was found to be 69%. In the test on Plasmodium falciparum [2], this molecule displayed an EC50 of 80 µM.

As for `Cc1cn([C@H]2C[C@H](N=[N+]=[N-])[C@@H](CO)O2)c(=O)[nH]c1=O` [ZIDOVUDINE], the inhibition of growth at 100 µM in the test on Plasmodium falciparum [1] is 0%. Moreover, in the test with Plasmodium falciparum [2], the EC50 was greater than 100 µM.

As to `CCOC(=O)[C@H](NP(=O)(OC[C@H]1O[C@@H](n2cnc3c(=O)[nH]c(N)nc32)C[C@@H]1N=[N+]=[N-])Oc1ccccc1)C(C)C` (stereo partly specified), in the test on Plasmodium falciparum [1], the inhibition of growth at 100 µM came out at 80%. Moreover, the EC50 in the test on Plasmodium falciparum [2] was found to be 66 µM.

On to `Cc1cn([C@@H]2C[C@H](N=[N+]=[N-])[C@@H](CO)O2)c(=O)[nH]c1=O`, for which the inhibition of growth at 100 µM in the test on Plasmodium falciparum [1] turned out to be 0%. The same molecule gave an EC50 in the test with Plasmodium falciparum [2] greater than 100 µM.
